We go through three compounds from patent publication US9730906B2, “α-derivatives of cis-monounsaturated fatty acids for use as medicines” (UNIVERSITAT DE LES ILLES BALEARS, priority 2008, dated 2017).

Molecules are shown by their SMILES.

Test [1] has as its system A549 cells of human lung adenocarcinoma. As to the kind of experiment: Prevention of tumour development in nude mice injected with A549 cells. To be noted: 400 mg/kg per day oral, 2 weeks before and one month after A549 injection, compared with fatty acids not of Formula I, p<0.05. The format is in vivo.
A further test deals with lung cancer cells (A549). Kind of test: Culture plate invasion model, lung cancer cells (A549). To be noted: 50 μM and 100 μM, different times, vs untreated cells, p<0.05. The format is cell-based, human. As to the method: FIG. 5A. Invasive capacity of lung cancer cells (A549) in culture, in the absence (control, C) or presence of OHOD (2-hydroxy-9-cis-octadecenoic acid) at 50 μM (M50) and 100 μM (M100) and at different times.
FIG. 5B. Invasive capacity of lung cancer cells (A549) in culture, in the absence (control, C) or presence of OHOD (2-hydroxy-9-cis-octadecenoic acid) at 50 μM (M50) and 100 μM (M100) and at different times.
Furthermore, α-derivatives of cis-monounsaturated fatty acids are capable of inducing cadherin expression. Cadherin is a cellular adhesion protein. Cells expressing cadherin are often not displaced from their tissue location as they adhere to the surrounding cells. Tumour cells that lose the capacity to synthesise this protein can migrate from the tissue in which they were generated to other body tissues where they can develop a new tumour focus by the process known as metastasis. In treatments with α-derivatives of cis-monounsaturated the fatty acids, a significant increase in cadherin levels was observed (FIG. 4). The invasive capacity of cancer cells was also investigated in a culture plate invasion model. […] Then, an area of the culture dish is scraped and the number of cells invading this region at various times, in the presence and absence of the anti-metastasis compound is counted.

In test [2] the target is T1, cyclooxygenases-1 (COX-1) (Homo sapiens, UniProt P23219).
T1 construct: endogenous in cells; host or cells: U937 differentiated monocytes
As to the kind of experiment: COX-1 activity in U937 differentiated monocytes (Cayman COX-1 inhibitor screening system). Type of test: cell-based. The following applies: 250 μM, 6 hours; compared with fatty acids not of Formula I, p<0.05.

Test [3] concerns SF767 human brain cancer cells. As to the kind of experiment: Tumour volume in nude mice infected with SF767 human brain cancer cells. The following applies: 600 mg/kg daily for 50 days; for volume of tumours (percent compared to control): p<0.001 vs control. Type of test: in vivo. The protocol:
FIG. 6A. Effect of different salts of OHOD on human lung cancer in an animal cancer model. The volume of tumours in nude mice infected with SF767 human brain cancer cells (expressed as a percent compared to control) receiving various treatments. The animals received a vehicle (water: Control), 600 mg/kg of OHOD in the form of free fatty acid (OHOD), 600 mg/kg of sodium salt of OHOD (Na-OHOD) or 600 mg/kg of ammonium salt of OHOD (NH3OHOD) daily for 50 days.
FIG. 6B. Effect of different salts of OHOD on human lung cancer in an animal cancer model. The effect of different doses of sodium salt of OHOD (Na-OHOD) are shown on tumour volumes in mice infected with SF767 cells and treated with vehicle (control, 0 mg/kg), 100 mg/kg (100), 200 mg/kg (200), 400 mg/kg (400) and 600 mg/kg (600) for 50 days. * p<0.05; ***p<0.001.
One important characteristic of the molecules covered in the present invention is that they can form various types of salts. FIG. 6A and Table 5 show the therapeutic effects of various α-derivatives of cis-monounsaturated fatty acids and their salts. […] The specificity of this effect is determined by the relation between the dose and the effect these molecules have on the volume of human tumours implanted in animals (FIG. 6B).

The test system of another test is cyclooxygenase-2 (COX-2). Kind of test: Cellular concentration of COX-2 in U937 differentiated monocytes (immunoblot). To be noted: 250 μM, 6 hours; compared with fatty acids not of Formula I, p<0.05. The format is cell-based, human. Background: A western blot detects proteins with antibodies after separation by electrophoresis.

T1 sequence (P23219 24-599): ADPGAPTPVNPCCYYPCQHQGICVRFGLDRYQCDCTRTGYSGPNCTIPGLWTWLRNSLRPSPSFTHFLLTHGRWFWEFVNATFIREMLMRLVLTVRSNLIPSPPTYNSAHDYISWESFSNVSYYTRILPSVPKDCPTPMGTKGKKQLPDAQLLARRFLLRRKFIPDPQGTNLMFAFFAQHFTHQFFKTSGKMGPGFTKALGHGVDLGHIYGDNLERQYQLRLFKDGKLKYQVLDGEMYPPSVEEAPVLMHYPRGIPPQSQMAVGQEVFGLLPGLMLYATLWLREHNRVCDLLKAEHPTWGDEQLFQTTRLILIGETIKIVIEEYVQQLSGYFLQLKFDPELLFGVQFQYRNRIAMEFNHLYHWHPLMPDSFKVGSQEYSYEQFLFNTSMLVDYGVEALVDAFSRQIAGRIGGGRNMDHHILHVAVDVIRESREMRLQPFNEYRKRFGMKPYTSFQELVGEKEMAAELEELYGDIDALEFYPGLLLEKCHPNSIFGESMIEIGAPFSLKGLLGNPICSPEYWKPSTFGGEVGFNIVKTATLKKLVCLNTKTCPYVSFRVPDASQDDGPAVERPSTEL

Consider `CCCCCCCC/C=C\CCCCCCC(O)C(=O)O` (stereo not drawn) [OHOD, α-Hydroxy-cis-Δ9-octadecenoic], for which, in test [1], the “tumour volume (prevention of tumour development)” value is reported as “more significant effect”. In addition, the “invasive capacity (number of invasive cells)” value in the test on lung cancer cells (A549) is “lower invasive capacity”. Besides, the “inhibition of COX-1 activity (% of control)” value in test [2] is reported as “more significant effect”. Also, the “volume of tumours (percent compared to control)” value in test [3] was “significant reductions in the size of tumours”. The “cellular concentration of COX-2 (% of control)” value with cyclooxygenase-2 (COX-2) is on record as “more significant effect”.

As to `CCCCCCCC/C=C\CCCCCCC(O)C(=O)[O-].[Na+]` (stereo not shown) [Na-OHOD], the “volume of tumours (percent compared to control)” value in test [3] is “significant reductions in the size of tumours”. Moreover, the “potency on tumour volume compared with the free fatty acid OHOD” value in test [3] (p<0.05) is on record as “significantly more potent”.

For `CCCCCCCC/C=C\CCCCCCC(OC)C(=O)O` (stereo not drawn) [MOOD, α-Methoxy-cis-Δ9-octadecenoic], in test [1], the “tumour volume (prevention of tumour development)” value is given as “more significant effect”. In addition, the “inhibition of COX-1 activity (% of control)” value in test [2] is “more significant effect”. Besides, the “cellular concentration of COX-2 (% of control)” value in the test with cyclooxygenase-2 (COX-2) is “more significant effect”.
